Where a SMILES comes first, the peptide text is derived from it. Bridges are numbered along the chain shown (N, C = ends). [ ]: non-standard residue; d: D form. The star is where a group is joined. Phe(3-CF3) = N[C@@H](Cc1cccc(C(F)(F)F)c1)C(=O)O; Phe(4-COOH) = N[C@@H](Cc1ccc(C(=O)O)cc1)C(=O)O; Bip = N[C@@H](Cc1ccc(-c2ccccc2)cc1)C(=O)O; NH(CH2)14COOH = O=C(O)CCCCCCCCCCCCCCN*; Phe(3-Me) = Cc1cccc(C[C@H](N)C(=O)O)c1; Val(3-OH) = CC(C)(O)[C@H](N)C(=O)O; 4Pal = N[C@@H](Cc1ccncc1)C(=O)O; Cha = N[C@@H](CC1CCCCC1)C(=O)O; Carboxymethyl = O=C(O)C*; NMeA = CN[C@@H](C)C(=O)O; Aun = NCCCCCCCCCCC(=O)O; Dab = NCC[C@H](N)C(=O)O; AEEA = NCCOCCOCC(=O)O

The target in the experiment is T1, PD-1/PD-L1 interaction (PE-labeled human PD-L1-Ig binding to Jurkat cell line over-expressing human PD-1) (Homo sapiens, UniProt Q15116).
T1 construct: expressed in transfected cells; host or cells: Jurkat
T1 sequence (Q15116 25-288): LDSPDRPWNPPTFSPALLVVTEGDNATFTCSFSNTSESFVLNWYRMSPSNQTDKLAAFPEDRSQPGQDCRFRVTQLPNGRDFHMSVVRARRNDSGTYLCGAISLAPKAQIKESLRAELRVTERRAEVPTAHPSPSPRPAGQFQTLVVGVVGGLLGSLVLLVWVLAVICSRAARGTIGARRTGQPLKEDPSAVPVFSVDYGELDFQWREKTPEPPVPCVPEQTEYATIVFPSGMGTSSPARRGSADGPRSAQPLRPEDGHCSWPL
As to the kind of experiment: Jurkat-PD-1 Cell Binding High-Content Screening Assay (CBA). Particulars: PE-labeled PD-L1-Ig 20 nM final, Jurkat-hPD-1 cells; read-out: Jurkat HPD1 PDL1 IC50. In outline:
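Jurkat-hPD-1 cells (8×10^3/well) in DMEM with 10% fetal calf serum were preincubated with compound for 2 h at 37 °C. PE-labeled PD-L1-Ig was then added at 20 nM final for 1 h. Cells were fixed in paraformaldehyde with Hoechst 33342, washed and imaged by high-content imaging.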
As for `Cc1cccc(C[C@@H]2NC(=O)[C@H](CC(=O)O)NC(=O)[C@H](Cc3ccc(OCC(=O)O)cc3)NC(=O)[C@H](Cc3ccncc3)NC(=O)CSC[C@@H](C(=O)NCCOCCOCC(=O)NCCOCCOCC(=O)NCCCCCCCCCCC(=O)O)NC(=O)[C@H](CCC(=O)O)NC(=O)[C@H](C(C)(C)O)NC(=O)[C@H](CC3CCCCC3)NC(=O)[C@H](CCN)NC(=O)[C@@H](CC(C)C)NC(=O)[C@H](C)N(C)C(=O)[C@H](Cc3ccc(C(=O)O)cc3)NC(=O)[C@H](Cc3ccc(-c4ccccc4)cc3)NC(=O)[C@H](Cc3ccc(C(=O)O)cc3)NC2=O)c1` [Example 2486] ({CH2CO}-[4Pal]Y(Carboxymethyl)D[Phe(3-Me)][Phe(4-COOH)][Bip][Phe(4-COOH)][NMeA][dL][Dab][Cha][Val(3-OH)]EC[AEEA][AEEA][Aun]-OH; thioether N-14), the concentration for half-maximal inhibition (IC50) came out at 305 nM. The same measure for `Cc1cccc(C[C@@H]2NC(=O)[C@H](CC(=O)O)NC(=O)[C@H](Cc3ccc(OCC(=O)O)cc3)NC(=O)[C@H](Cc3ccncc3)NC(=O)CSC[C@@H](C(=O)N[C@@H](CCN)C(=O)NCCCCCCCCCCC(=O)O)NC(=O)[C@H](Cc3cnc[nH]3)NC(=O)[C@H](C(C)(C)O)NC(=O)[C@H](CC3CCCCC3)NC(=O)[C@H](CCN)NC(=O)[C@@H](CC(C)C)NC(=O)[C@H](C)N(C)C(=O)[C@H](Cc3ccc(OCC(=O)O)cc3)NC(=O)[C@H](Cc3ccc(-c4ccccc4)cc3)NC(=O)[C@H](Cc3ccc(OCC(=O)O)cc3)NC2=O)c1` [Example 2467] ({CH2CO}-[4Pal]Y(Carboxymethyl)D[Phe(3-Me)]Y(Carboxymethyl)[Bip]Y(Carboxymethyl)[NMeA][dL][Dab][Cha][Val(3-OH)]HC[Dab][Aun]-OH; thioether N-14): 161 nM. The same measure for `CC(=O)NCCCC[C@@H]1NC(=O)[C@H](C(C)(C)O)NC(=O)[C@H](CC2CCCCC2)NC(=O)[C@H](CCN)NC(=O)[C@@H](CC(C)C)NC(=O)[C@H](C)N(C)C(=O)[C@H](CCC(N)=O)NC(=O)[C@H](Cc2ccc(-c3ccccc3)cc2)NC(=O)[C@H](Cc2ccc(C(=O)O)cc2)NC(=O)[C@H](Cc2cccc(C(F)(F)F)c2)NC(=O)[C@H](CC(=O)O)NC(=O)[C@H](Cc2ccc(OCC(=O)O)cc2)NC(=O)[C@H](Cc2ccc(OCC(=O)O)cc2)NC(=O)CSC[C@@H](C(=O)N[C@@H](CCN)C(=O)NCCCCCCCCCCCCCCC(=O)O)NC1=O` [Example 2606] ({CH2CO}-Y(Carboxymethyl)Y(Carboxymethyl)D[Phe(3-CF3)][Phe(4-COOH)][Bip]Q[NMeA][dL][Dab][Cha][Val(3-OH)]K(Ac)C[Dab]-{NH(CH2)14COOH}; thioether N-14): 48.9 nM; for `CC(=O)NCCCC[C@@H]1NC(=O)[C@H](C(C)(C)O)NC(=O)[C@H](CC2CCCCC2)NC(=O)[C@H](CCN)NC(=O)[C@@H](CC(C)C)NC(=O)[C@H](C)N(C)C(=O)[C@H](C(C)C)NC(=O)[C@H](Cc2ccc(-c3ccccc3)cc2)NC(=O)[C@H](CC(C)C)NC(=O)[C@H](Cc2c[nH]c3ccccc23)NC(=O)[C@H](CC(=O)O)NC(=O)[C@H](Cc2ccc(C(=O)O)cc2)NC(=O)[C@H](Cc2ccc(OCC(=O)O)cc2)NC(=O)CSC[C@@H](C(=O)NCCOCCOCC(=O)NCCCCCCCCCCC(=O)O)NC1=O` [Example 2460] ({CH2CO}-Y(Carboxymethyl)[Phe(4-COOH)]DWL[Bip]V[NMeA][dL][Dab][Cha][Val(3-OH)]K(Ac)C[AEEA][Aun]-OH; thioether N-14): 14.9 nM.

One may read the IC50 as the point on the concentration scale where inhibition reaches its midpoint.

For the origin of these results see patent publication US20260070945A1, “MACROCYCLIC IMMUNOMODULATORS” (Bristol-Myers Squibb Company, priority 2022, published 2026).
